Like-named read-outs stand apart in the source and are kept apart here.
Legend:
[1] = tested on: rgRSV224 L141W mutant strain; format: cell-based, respiratory syncytial virus; conditions: mutant selected with JNJ-53718678
[2] = tested on: rgRSV224 D489Y mutant strain; format: cell-based, respiratory syncytial virus
rgRSV224 = experiment: microbe, parasite or virus in culture; format: cell-based, respiratory syncytial virus; conditions: for EC50: human respiratory syncytial virus, HeLa
DENV-2 = experiment: microbe, parasite or virus in culture; format: cell-based; conditions: Dengue virus, read-out: EC50 DENV
L141W mutant RSV = format: cell-based, respiratory syncytial virus; conditions: A549 cells, time-lapse imaging 48 h
[3] = tested on: RSV-induced cellular influx in the lungs; experiment: Measurement of cellular influx into the lungs of RSV-infected BALB/c mice; format: in vivo
HeLa RH cells = conditions: human, 3 days
Protocol: (§1) After 3 days of incubation at 33 °C, cytopathic effect (CPE) was quantified by measuring the ATP content in compound-treated and non-treated cells with ATPlite kit according to the manufacturer’s instructions. Cytotoxicity of the compound was determined in a parallel set of plates mock-infected with cell culture medium. After 3 days of incubation at 33 °C, ATP content in compound-treated and non-treated cells was quantified with ATPlite kit.

[4] = tested on: rgRSV224 in human bronchoepithelial cells (HBECs); experiment: Antiviral potency in air-liquid cultures of HBECs infected with rgRSV224
[5] = target: T1, full-length wild-type RSV F protein (Human respiratory syncytial virus A, UniProt P03420); experiment: Membrane-bound F protein stability assay (heat-shock flow cytometry, HEK293T cells); format: cell-based; conditions: 55 °C for 10 min
T1 construct: The full-length wild-type RSV F protein was transiently expressed in HEK293T cells; expressed in transfected cells; host or cells: HEK293T
T1 sequence (P03420 26-109): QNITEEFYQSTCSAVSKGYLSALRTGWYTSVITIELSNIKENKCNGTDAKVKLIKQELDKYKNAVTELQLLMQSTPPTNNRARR
T1 sequence (P03420 137-574): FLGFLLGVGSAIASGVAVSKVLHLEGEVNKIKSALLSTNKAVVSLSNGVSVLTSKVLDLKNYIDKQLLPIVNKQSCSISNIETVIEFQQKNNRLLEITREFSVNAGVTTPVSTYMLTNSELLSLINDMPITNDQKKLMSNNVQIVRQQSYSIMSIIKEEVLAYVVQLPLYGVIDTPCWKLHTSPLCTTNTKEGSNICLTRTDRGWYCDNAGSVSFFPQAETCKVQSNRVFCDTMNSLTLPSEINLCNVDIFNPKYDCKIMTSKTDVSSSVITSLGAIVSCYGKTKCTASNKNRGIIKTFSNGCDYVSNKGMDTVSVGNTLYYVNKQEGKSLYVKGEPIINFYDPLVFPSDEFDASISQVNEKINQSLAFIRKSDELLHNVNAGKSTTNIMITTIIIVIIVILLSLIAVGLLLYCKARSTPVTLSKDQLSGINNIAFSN
Protocol: The full-length wild-type RSV F protein was transiently expressed in HEK293T cells. Forty-eight hours post transfection, the cells were detached using an EDTA-containing buffer and the cell suspension with or without added compounds was heat-shocked for 10 min at 55 °C. The cells were stained with the CR9501 and CR9503 antibodies (1 µg ml^−1) directly labeled with AlexaFluor647 (Alexa Fluor® 647 Monoclonal Antibody Labeling Kit, Molecular Probes/Invitrogen). Propidium iodide (Molecular Probes/Invitrogen) was used as a live-dead stain. Flow Cytometry was performed on FACS Canto II instrument (BD Biosciences). The data were analyzed using FlowJo9.6.1 software. A single cell population was selected on the side and forward scatters dot-plot. Within this population, PI-negative cells were analyzed for staining with CR9501 and CR9503 antibodies. Mean fluorescence intensity was calculated and the values of the heat-shocked samples were normalized to untreated (37 °C) samples.

[6] = Cytotoxicity in non-infected MT4-LTR-Luc cells; format: cell-based; conditions: human, mean of at least 3 experiments, read-out: CC50 (HIV-1 row)
Protocol: (§2) Briefly, white 384-well plates were filled in quadruplicate using a customized robot system with serial fourfold dilutions of compound in a final volume of 10 µl culture medium. Then, 15 µl of a MT4-LTR-Luc cell suspension (4 × 10^5 cells per ml) in culture medium was added to each well followed by the addition of 15 µl HIV IIIB virus (MOI = 0.0125) in culture medium using a multidrop dispenser. […] The CC50 value was calculated on the basis of the difference of luminescence between non-treated and compound-treated cells.

Long strain RSV = experiment: In vivo efficacy in RSV-infected cotton rats; parameters: species or system Sigmodon hispidus cotton rats
RSV M37 strain = experiment: In vivo efficacy in RSV-infected neonatal lambs
recombinant hMPV = experiment: microbe, parasite or virus in culture; format: cell-based; conditions: human metapneumovirus, Vero/TMPRSS2; mean of at least 3 experiments
RSV A2 = experiment: Viral titer in RSV-inoculated BALB/c mice; format: in vivo; conditions: single 40 mg kg−1 dose 1 h before infection
CVB = CVB assay in Vero Bayer cells; format: cell-based, Coxsackie virus B4; conditions: Enterovirus B, mean of at least 3 experiments
[7] = tested on: RSV-induced pro-inflammatory cytokines and chemokines; experiment: Cytokine and chemokine analysis in RSV-infected BALB/c mice; format: in vivo; conditions: single 40 mg kg−1 p.o. 1 h before infection, Day 6, mean ± s.e.m., n=6
in vitro [8] = conditions: African green monkey
post-fusion RSV F = format: binding; conditions: ITC
HIV-1 IIIB virus = experiment: HIV-1 assay in MT4-LTR-Luc cells; format: cell-based; conditions: Human immunodeficiency virus 1, IIIB; mean of at least 3 experiments
Protocol: as §2

in vivo [9] = conditions: 10 mg/kg
[10] = tested on: soluble prefusion ectodomain of F protein; conditions: DSF
[11] = target: T2, prefusion-stabilized RSV F protein (DS-Cav1) (Human respiratory syncytial virus A, UniProt P03420, I379V/M447V/S155C/S190F/S290C/V207L); experiment: biochemical; format: binding; conditions: ITC
T2 construct: purification tags incl; made in house; host or cells: FreeStyle 293 F cells, with kifunensine
T2 sequence (P03420 137-513, looked up, stated change not applied): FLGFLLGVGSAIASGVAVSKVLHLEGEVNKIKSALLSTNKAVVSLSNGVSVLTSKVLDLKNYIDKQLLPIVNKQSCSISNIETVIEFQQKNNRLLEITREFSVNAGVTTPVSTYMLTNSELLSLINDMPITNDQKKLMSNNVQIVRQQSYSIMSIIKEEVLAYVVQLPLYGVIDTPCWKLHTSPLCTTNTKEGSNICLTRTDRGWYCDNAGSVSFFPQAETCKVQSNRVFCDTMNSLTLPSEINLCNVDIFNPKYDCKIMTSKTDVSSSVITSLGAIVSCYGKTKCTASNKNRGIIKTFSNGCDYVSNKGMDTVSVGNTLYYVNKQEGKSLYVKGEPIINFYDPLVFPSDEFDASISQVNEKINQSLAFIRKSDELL
T2 sequence (P03420 26-109, stated change not applied): as the sequence (P03420 26-109) above

in vitro [12] = conditions: human
Protocol: Briefly, 96-well plates were filled with 100 µl/well of HepG2.117 cells (2 × 10^4 cells per well) and incubated overnight at 37 °C in a humidified atmosphere containing 5% CO2.

recombinant PIV-3 strain = experiment: microbe, parasite or virus in culture; format: cell-based, human parainfluenza virus 3; conditions: Human respirovirus 3, Vero; mean of at least 3 experiments
in vitro [13] = conditions: human; remark: listed apart in the source
[14] = target: T3, prefusion D489Y mutant RSV F (DS-Cav1) (Human respiratory syncytial virus A, UniProt P03420, D489Y/I379V/M447V/S155C/S190F/S290C/V207L); format: binding; conditions: ITC; 1:1 fits could not be determined
T3 construct: purification tags incl; made in house; host or cells: FreeStyle 293 F cells, with kifunensine
T3 sequence (P03420 26-109, stated change not applied): as the sequence (P03420 26-109) above
T3 sequence (P03420 137-513, looked up, stated change not applied): as the sequence (P03420 137-513, looked up, stated change not applied) above

[15] = dog
[16] = target: T4, prefusion L141W mutant RSV F (DS-Cav1) (Human respiratory syncytial virus A, UniProt P03420, I379V/L141W/M447V/S155C/S190F/S290C/V207L); format: binding; conditions: ITC; 1:1 fits could not be determined
T4 construct: purification tags incl; made in house; host or cells: FreeStyle 293 F cells, with kifunensine
T4 sequence (P03420 137-513, looked up, stated change not applied): as above
T4 sequence (P03420 26-109, stated change not applied): as the sequence (P03420 26-109) above

recombinant MV = experiment: MV assay in Vero/hSLAM cells; conditions: Measles morbillivirus, Vero, read-out: EC50 MV
[17] = tested on: HCV genotype 1b subgenomic replicon; experiment: microbe, parasite or virus in culture; format: cell-based; conditions: Hepatitis C virus; mean of at least 3 experiments
CMV-AD169-eGFP virus = experiment: microbe, parasite or virus in culture; format: cell-based, cytomegalovirus; conditions: Human betaherpesvirus 5, AD169, HEL 299; mean of at least 3 experiments
HRV 16 = experiment: HRV assay (CPE, HeLa RH cells), HRV 16; conditions: Rhinovirus A, read-out: EC50 HRV 16
Protocol: as §1

HRV 1b = experiment: HRV assay (CPE, HeLa RH cells), HRV 1b; conditions: Rhinovirus A, read-out: EC50 HRV 1b
Protocol: as §1

in vivo [18] = conditions: male, Beagle, dog
RSV A and B strains = conditions: HeLa cells
Protocol: Briefly, black 384-well clear-bottom microtiter plates were filled in quadruplicate using a customized robot system with serial fourfold dilutions of compound in a final volume of 200 nl dimethylsulfoxide (DMSO). Then, 20 µl of a HeLa cell suspension (5 × 10^4 cells ml^−1) in culture medium was added to each well followed by the addition of 20 µl RSV (multiplicity of infection, MOI = 0.02) in culture medium, or 20 µl culture medium for cell controls, using a multidrop dispenser. […] In parallel, compounds were incubated for 3 days in a set of white 384-well microtiter plates and the cytotoxicity of compounds in HeLa cells (CC50) was determined by measuring the adenosine triphosphate (ATP) content of the cells using the ATPlite kit (PerkinElmer, Waltham, MA) according to the manufacturer’s instructions. The activity of the compound against non-recombinant RSV A and B strains was determined similarly by plaque assay[70].

D489Y mutant RSV = format: cell-based, respiratory syncytial virus; conditions: A549 cells, time-lapse imaging 48 h
in vitro [19] = conditions: African green monkey; remark: listed apart in the source
Protocol: Briefly, black 384-well clear-bottom microtiter plates were filled in quadruplicate using a customized robot system with serial fourfold dilutions of compound in a final volume of 200 nl DMSO. Then, 20 µl of a Vero Bayer cell suspension (3.75 × 10^4 cells/ml) in culture medium was added to each well followed by the addition of 20 µl PIV-3-eGFP virus (MOI = 1) in culture medium, or 20 µl culture medium for cell controls, using a multidrop dispenser.

in vitro [20] = conditions: African green monkey; remark: listed apart in the source
[21] = target: prefusion-stabilized RSV F protein (DS-Cav1) (respiratory syncytial virus strain A2); experiment: crystal structure
[22] = mock-treated rgRSV224 during in vitro selection procedure, read-out: EC50 wild-type strain (untreated control)
[23] = RSV-infected, single 40 mg kg−1 p.o., BAL, mean ± s.e.m., n=6
[24] = HBECs, 100 nM, 6 or 24 h after onset of infection
[25] = 25 mg kg−1 daily starting 1 day after infection

Cc1cn2nc([C@@H]3CCCCN3C(=O)c3cc(Cl)ccc3NS(C)(=O)=O)cc2nc1N1CC[C@H](N)C1 [GS-5806, reference compound]
FC (fold change over wild-type strain) mutant strain L141W [1]: 379
FC (fold change over wild-type strain) mutant strain D489Y ([2]; mutant selected with JNJ-53718678): > 50,000
EC50 (rgRSV224; [22]): 1e-10 M
EC50 (rgRSV224; read-out: EC50 parent strain (rgRSV224)): 1e-10 M

CS(=O)(=O)CCCn1c(Cn2c(=O)n(CC(F)(F)F)c3ccncc32)cc2cc(Cl)ccc21 [JNJ-53718678]
EC50 (DENV-2): 17.7 µM
concentration required for inhibition of the infection rate, L141W mutant RSV (L141W mutant RSV): 100 nM
reduction of influx of neutrophils ([3]; BALB/c mice, single 40 mg kg−1 dose 1 h before infection): ~ 5.5 fold
CD4+ T cells, mean cell number [3, 23]: 986 ± 113
CD8+ T cells, mean cell number [3, 23]: 2,757 ± 447
Monocytes (CD115+ infiltrating into the lung), mean cell number [3, 23]: 33 ± 9
NK cells, mean cell number [3, 23]: 1,059 ± 130
Neutrophils, mean cell number [3, 23]: 160 ± 40
T cells, mean cell number [3, 23]: 2,869 ± 671
CC50 (HeLa RH cells): > 100 µM
reduction of viral replication vs non-treated cells [4, 24]: ~ 1.3 log10
reduction of viral titer vs non-treated cells [4, 24]: ~ 1.3 log10
EC50 ([4]; human respiratory syncytial virus, read-out: calculated EC50): 0.0012 µM
fraction of prefusion F on the surface of the cells after heat shock [5]: concentration-dependent increase
CC50 at 2 days [6]: 21.6 µM
decrease of the RSV titer in both BALF and lavaged-lung tissue (Long strain RSV; 40 mg kg−1 once daily from 24 h until Day 3 post-inoculation): 1.5 log10
decrease of RSV titer in lungs vs vehicle group (Long strain RSV; single oral prophylactic dose 100 mg kg−1, 1 h before infection, on average): 100 fold
reduction of the viral titer (Long strain RSV; single-dose therapeutic treatment 40 mg kg−1, 24 h after infection): moderate reduction
reduction of the viral RNA titer in BALF and lavaged-lung tissue vs vehicle (RSV M37 strain; [25]): > 95%
reduction of the viral RNA titer in BALF vs vehicle (RSV M37 strain; [25]): ~ 22 fold
reduction of the viral RNA titer in lavaged-lung tissue vs vehicle (RSV M37 strain; [25]): ~43 fold
microscopic lung lesions (RSV M37 strain; 25 mg kg−1 initiated 1 day after infection): lacked microscopic lesions
formation of gross RSV-associated lung lesions (RSV M37 strain; once daily starting 1 day after infection): complete inhibition
RSV infectious titer in BALF and lavaged-lung tissue (RSV M37 strain; oral once daily 1, 5 or 25 mg kg−1 starting 1 day after infection, Day 6): (almost) complete eradication
EC50 (recombinant hMPV): 73 µM
viral titer in BALF and lavaged lung (RSV A2): significant decrease
EC50 (CVB): 3.73 µM
CCL2 mean concentration in BALF [7]: 118 ± 17 pg/mL
CCL3 mean concentration in BALF [7]: 77 ± 11 pg/mL
CCL5 mean concentration in BALF [7]: 111 ± 13 pg/mL
CXCL1 mean concentration in BALF [7]: 145 ± 23 pg/mL
CXCL9 mean concentration in BALF [7]: 1,878 ± 135 pg/mL
CXCL10 mean concentration in BALF [7]: 2,265 ± 332 pg/mL
IFN mean concentration in BALF [7]: 465 ± 109 pg/mL
IL-1 mean concentration in BALF [7]: 171 ± 8 pg/mL
IL-6 mean concentration in BALF [7]: 29 ± 5 pg/mL
IL-12p40 mean concentration in BALF [7]: 0.7 ± 0.4 pg/mL
IL-17 mean concentration in BALF [7]: 3.2 ± 0.3 pg/mL
CC50 at 3 days (in vitro [8]): > 25 µM
binding to post-fusion RSV F (post-fusion RSV F): did not bind
EC50 (HIV-1 IIIB virus): 13.5 µM
Cmax (in vivo [9]): 254 ng/mL
Tmax (in vivo [9]): 1 h
AUC(0-t) (in vivo [9]; AUC0-7 lung): 2020 ng·h/mL
AUC(0-t) (in vivo [9]; AUC0-7 plasma): 680 ng·h/mL
melting temperature (Tm) of soluble prefusion F ectodomain [10]: concentration-dependent increase
binding stoichiometry [11]: one inhibitor per trimer
Kd ([11]; read-out: equilibrium dissociation constant (KD)): 0.0074 µM
EC50 ([2]; rgRSV224 carrying a D489Y resistance mutation in F, read-out: EC50 (mutant RSV)): 4.1 µM
CC50 at 4 days (in vitro [12]): > 100 µM
EC50 (recombinant PIV-3 strain): 26.3 µM
CC50 at 5 days (in vitro [13]): > 100 µM
effect of D489Y mutation on binding affinity to prefusion F [14]: dramatic reduction
F ([15]; PO 5 mg kg−1 vs IV 1 mg kg−1): 89%
CLp as fraction of LBF ([15]; male, Beagle, in vivo, iv, 1 mg/kg): ~ 27 % LBF
effect of L141W mutation on binding affinity to prefusion F [16]: dramatic reduction
EC50 (recombinant MV): > 100 µM
EC50 [17]: 24.3 µM
EC50 (CMV-AD169-eGFP virus): 17.4 µM
EC50 (HRV 16): > 100 µM
EC50 (HRV 1b): > 100 µM
Vd (in vivo [18]; in vivo, iv, 1 mg/kg): 2.8 L/kg
AUC(0-inf) (in vivo [18]; in vivo, po, 5 mg/kg): 9690 ng·h/mL
Cmax (in vivo [18]; in vivo, po, 5 mg/kg): 1120 ng/mL
Tmax (in vivo [18]; in vivo, po, 5 mg/kg): 1.7 h
half-life (in vivo [18]; plasma): 4.1 h
clearance (in vivo [18]; plasma, iv, 1 mg/kg): 9 mL/min/kg
improvement of activity as compared to BMS-433771 (rgRSV224): > 10 fold
EC50 (rgRSV224; [22]): 1.6e-09 M
EC50 (rgRSV224; pEC50 = -Log10(EC50)(M), preliminary SAR, read-out: pEC50 (converted)): 5.01e-10 M
activity against RSV strains from both A and B subtypes (RSV A and B strains): highly active
concentration required for inhibition of the infection rate, D489Y mutant RSV (D489Y mutant RSV): 10 µM
CC50 (in vitro [19]): > 100 µM
CC50 at 2 days (in vitro [19]): > 100 µM
CC50 at 3 days (in vitro [20]): > 25 µM

prefusion-stabilized RSV F protein (DS-Cav1) (domain or fragment)
stoichiometry N [21]: 3

— publication PMC5537225, “Therapeutic efficacy of a respiratory syncytial virus fusion inhibitor” (Nature Communications, 2017)
